One assay concerns the target T1, MAT2A homodimer (Homo sapiens, UniProt P31153).
T1 construct: inferred from the Ni sepharose purification and imidazole elution; made in house; host or cells: SF9 insect cells, recombinant baculovirus (Bac to Bac, pFASTBAC1)
The assay is described as follows: MAT2A biochemical assay (liberated phosphate, PiColorLock Gold). The settings on record: Table 5a; MAT2A biochemical assay; read-out: Enzyme Inhibition. An outline of the steps:
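Readout is liberated phosphate (PiColorLock Gold), stoichiometric with SAM production, quantified against a potassium phosphate standard curve. Enzyme: recombinant MAT2A homodimer from Sf9, equilibrated 60 min at 25 °C with compound before 60 min reaction with substrate mix containing 500 μM ATP and 400 μM L-methionine.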

The subject of assay [1] is SAM in HCT116 MTAP-deleted cells. The assay is described as follows: Cellular assay of target engagement (SAM), LC-MS/MS. Particulars: Homo sapiens, HCT-116, Table 5a, 72 h, read-out: Cell 72 h SAM Inhibition (MTAP −/−). The format is cell-based, human. A digest of the protocol:
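Target engagement was read as intracellular SAM, measured by LC-MS/MS with d3-SAM as internal standard in methanol/acetic acid extracts. These came from MTAP-deleted HCT116 colon carcinoma cells exposed to inhibitor for 72 hrs.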

A further assay deals with HCT116 MTAP-/-. The experiment in a line: Inhibition of cellular proliferation (Cell Titer Glo), HCT116 MTAP-/-. It is filed as cell-based, human. Particulars: Homo sapiens, HCT-116, 96 h, Table 5a, 4 days, read-out: 4 Day Relative Growth Inhibition (MTAP −/−). A digest of the protocol: (§1)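 After 4 days of compound exposure at 37 °C, starting 24 h after plating, growth of the MTAP-wildtype and MTAP-deleted HCT116 pair was measured as ATP luminescence (CellTiter-Glo). The proliferation index was signal minus no-cell blank, divided by blank-corrected 0.2% DMSO control.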

The test system of another assay is HCT116 MTAP+/+. The assay is described as follows: Inhibition of cellular proliferation (Cell Titer Glo), HCT116 MTAP+/+. The format is cell-based. Particulars: Homo sapiens, HCT-116, 96 h, Table 5a, 4 days, read-out: 4 Day Relative Growth Inhibition (MTAP +/+). An outline of the steps:
as §1
(In general: Cellular ATP, detected with luciferase, serves as a proxy for viable cell number.)

T1 sequence (P31153 whole entry): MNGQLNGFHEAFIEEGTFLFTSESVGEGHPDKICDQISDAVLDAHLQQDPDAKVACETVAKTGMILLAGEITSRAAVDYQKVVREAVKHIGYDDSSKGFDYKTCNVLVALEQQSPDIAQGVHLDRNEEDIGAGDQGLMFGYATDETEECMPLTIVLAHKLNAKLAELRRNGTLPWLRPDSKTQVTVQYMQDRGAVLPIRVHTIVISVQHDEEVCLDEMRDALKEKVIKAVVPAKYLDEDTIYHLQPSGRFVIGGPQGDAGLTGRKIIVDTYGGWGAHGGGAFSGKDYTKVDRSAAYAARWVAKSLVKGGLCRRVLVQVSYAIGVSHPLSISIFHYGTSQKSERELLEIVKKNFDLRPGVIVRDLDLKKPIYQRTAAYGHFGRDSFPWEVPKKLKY

For the molecule `[2H]C([2H])([2H])Oc1ccc(N2C(=O)N(c3ccc4nn(C)c(C)c4c3)Cc3ccc(OCC(F)F)nc32)cc1` [Example 105, 7-(2,2-difluoroethoxy)-3-(2,3-dimethyl-2H-indazol-5-yl)-1-(4-(methoxy-d3)phenyl)-3,4-dihydropyrido[2,3-d]pyrimidin-2(1H)-one], the IC50 on MAT2A homodimer was under 100 nM; in assay [1], under 100 nM; with HCT116 MTAP-/- it was under 100 nM; in the assay on HCT116 MTAP+/+, 100 to 1000 nM.

For the molecule `COc1ccc(N2Cc3cnc(NCC(F)(F)F)nc3N(c3ccc(C(F)(F)F)cc3)C2=O)cc1` [Example 250, 3-(4-methoxyphenyl)-7-((2,2,2-trifluoroethyl)amino)-1-(4-(trifluoromethyl)phenyl)-3,4-dihydropyrimido[4,5-d]pyrimidin-2(1H)-one], the IC50 was 100 to 1000 nM at MAT2A homodimer, 100 to 1000 nM in assay [1], over 1000 nM in the assay with HCT116 MTAP-/- and over 1000 nM in the assay on HCT116 MTAP+/+.

`Cn1cc2cc(N3Cc4ccc(OCC(F)F)nc4N(c4ccc5ncccc5c4)C3=O)ccc2n1` [Example 175, 7-(2,2-difluoroethoxy)-3-(2-methyl-2H-indazol-5-yl)-1-(quinolin-6-yl)-3,4-dihydropyrido[2,3-d]pyrimidin-2(1H)-one]: the IC50 on MAT2A homodimer was under 100 nM; in assay [1], under 100 nM; with HCT116 MTAP-/- it was 100 to 1000 nM; with HCT116 MTAP+/+, 100 to 1000 nM.

Take `CCOc1ccc2c(n1)N(c1ccc(OC(F)F)cc1)C(=O)N(c1ccc3nn(C)nc3c1)C2` [Example 110, 1-(4-(difluoromethoxy)phenyl)-7-ethoxy-3-(2-methyl-2H-benzo[d][1,2,3]triazol-5-yl)-3,4-dihydropyrido[2,3-d]pyrimidin-2(1H)-one]: the IC50 was under 100 nM at MAT2A homodimer, under 100 nM in assay [1], 100 to 1000 nM with HCT116 MTAP-/- and over 1000 nM in the assay on HCT116 MTAP+/+.

Regarding `Cn1cc2cc(N3Cc4ccc(OCC(F)F)nc4N(c4ccc5[nH]ncc5c4)C3=O)ccc2n1` [Example 405, 7-(2,2-difluoroethoxy)-1-(1H-indazol-5-yl)-3-(2-methyl-2H-indazol-5-yl)-3,4-dihydropyrido[2,3-d]pyrimidin-2(1H)-one], the IC50 on MAT2A homodimer is under 100 nM; in assay [1], under 100 nM; with HCT116 MTAP-/-, 100 to 1000 nM; in the assay on HCT116 MTAP+/+, over 1000 nM.

As for `COc1ccc(N2Cc3cnc(NCC(F)F)nc3N(c3ccc(-c4nc[nH]n4)cc3)C2=O)cc1` [Example 188, 1-(4-(1H-1,2,4-triazol-3-yl)phenyl)-7-((2,2-difluoroethyl)amino)-3-(4-methoxyphenyl)-3,4-dihydropyrimido[4,5-d]pyrimidin-2(1H)-one], the IC50 on MAT2A homodimer was under 100 nM; in assay [1], 100 to 1000 nM; with HCT116 MTAP-/- it was 100 to 1000 nM; in the assay on HCT116 MTAP+/+ it was over 1000 nM.

Consider `CCOc1ccc2c(n1)N(c1ccc(OC(F)F)nc1)C(=O)N(c1ccc3nn(C)cc3c1)C2` [Example 275], for which the IC50 on MAT2A homodimer is under 100 nM; in assay [1], 100 to 1000 nM; with HCT116 MTAP-/-, 100 to 1000 nM; in the assay with HCT116 MTAP+/+ it was 100 to 1000 nM.

For the molecule `CCOc1ccc2c(n1)N(c1ccc(-c3nnc[nH]3)cc1)C(=O)N(c1ccc3ncn(C)c3c1)C2` [Example 154, 1-(4-(4H-1,2,4-triazol-3-yl)phenyl)-7-ethoxy-3-(1-methyl-1H-benzo[d]imidazol-6-yl)-3,4-dihydropyrido[2,3-d]pyrimidin-2(1H)-one], the IC50 at MAT2A homodimer is under 100 nM; in assay [1] it was under 100 nM; in the assay with HCT116 MTAP-/-, 100 to 1000 nM; in the assay with HCT116 MTAP+/+, 100 to 1000 nM.

As for `COc1ccc(N2Cc3ccc(NCC(F)(F)F)nc3N(c3ccc(Cl)cc3)C2=O)cc1` [Example 407, 1-(4-chlorophenyl)-3-(4-methoxyphenyl)-7-((2,2,2-trifluoroethyl)amino)-3,4-dihydropyrido[2,3-d]pyrimidin-2(1H)-one], the IC50 was 100 to 1000 nM at MAT2A homodimer, over 1000 nM in assay [1], over 1000 nM with HCT116 MTAP-/- and over 1000 nM in the assay on HCT116 MTAP+/+.

For the origin of these results see patent US20220098203A1 (priority 2018, published 2022).
